{"source": "patent US20230293504A1", "about": "“TARGETING SUCNR1 TO REDUCE NEUROINFLAMMATION” (New York University, priority 2022, published 2023)", "key": {"SUCNR1 [1]": {"target": "T1, SUCNR1 (Mus musculus, UniProt Q99MT6)", "T1 construct": "endogenous in cells; host or cells: live mice; C57/B6 is stated for the periodontitis model, and no strain is stated for the LPS model", "T1 sequence (Q99MT6 1-317)": "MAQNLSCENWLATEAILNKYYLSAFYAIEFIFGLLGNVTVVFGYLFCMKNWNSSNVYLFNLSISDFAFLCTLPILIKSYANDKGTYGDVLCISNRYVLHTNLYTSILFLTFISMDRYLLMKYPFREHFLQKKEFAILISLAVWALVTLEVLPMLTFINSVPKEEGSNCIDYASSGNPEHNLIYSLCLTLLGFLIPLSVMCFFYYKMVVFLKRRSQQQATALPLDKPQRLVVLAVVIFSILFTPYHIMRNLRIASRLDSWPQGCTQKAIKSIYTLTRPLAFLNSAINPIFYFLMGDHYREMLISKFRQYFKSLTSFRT", "experiment": "LPS-induced neuroinflammation in mice, oral gavage of 7a (FIG. 16)", "type": "in vivo", "settings": "LPS-treated mice", "procedure": "FIG. 16. […] A. Experimental design and treatment regime. 12-week-old male mice were randomly divided into 3 groups to receive inflammation induction (LPS) and treatment (7a) at indicated timepoints. PBS was used as the control solution to LPS and 20% DMSO in PBS (vehicle) was used as the control solution to 7a. The RNA samples were collected in TRIZol and extracted after perfusion. TNFα and IL1β mRNA levels were measured by Realtime PCR using specific primers and normalized to β-actin. B. Cerebellum, C. Hippocampus and D. Cortex. (* p<0.05. ** p<0.005, *** p<0.0005, **** p<0.0001 One-way ANOVA with post-hoc Tukey test).\nTargeting SUCNR1 with topical 7a application reduced periodontitis as well as the associated neuroinflammation in mice. […] Thus, mice were pretreated 7a or vehicle through oral gavage 30 minutes before giving LPS intraperitoneally to induce neuroinflammation. The administration of 7a at 8 hours and 16 hours was repeated after the first dose. The mouse blood samples were collected through cardiac puncture at 24 hours (FIG. 16A). Immediately afterward, PBS was used to perfuse the mice to minimize the impact of blood cells to the gene expression of the brain tissues. The brain tissue samples were collected and the cerebellum, hippocampus, and cortex were micro-dissected and processed for RNA extraction and gene expression analysis.\nThe 7a solution was prepared as follows. 100 mM 7a stock solution was prepared using DMSO. Then the 7a stock solution was further diluted with PBS to become 20 mM 7a working solution and used for oral gavage to mice. DMSO in PBS (at 20% v/v) was used as vehicle. Based on the animals' body weight, 25 gram mice will receive 100 μL gavage volume) 7a working solution or vehicle. The treatment dose of 7a is 80 μmol/kg."}, "SUCNR1 [2]": {"target": "T1, SUCNR1", "experiment": "Ligature plus F. nucleatum induced periodontitis in mice, topical 7a gel formulation (FIG. 11)", "type": "in vivo", "procedure": "FIG. 11. Targeting SUCNR1 suppressed periodontitis and neuroinflammation. A. Study design. Periodontitis was induced in 14-week-old mice with a 6-0 silk ligature (Roboz Surgical Instrument Co., MD, USA) around the maxillary right side second molar. The ligature were kept in place for 5 days before removal. Sterile swabs soaked in 100 μl of 2.5×10^9/ml F. nucleatum in PBS and inoculated into mice around the ligature affected gingival tissues for 30 seconds. Inoculations were performed twice a week for four weeks. Mice were randomly assigned to receive 3 μl vehicle or 7a gel formulation every other day by topical application. B. Representative μCT images; C. The distance between CEJ to alveolar bone crest. D. IL-1β mRNA levels in the gingivae around the ligature site. E. Serum IL-1β levels. *p<0.05, ** p<0.01, *** p<0.001).\nA novel mechanism connecting chronic peripheral inflammation and neuroinflammation. […] Inflammation was induced in 14-week-old C57/B6 mice by placing a ligature on the 2nd maxillary molar for 5-days plus twice/week inoculations of a key periodontal pathogen Fusobacteria nucleatum (Fn) for 4-weeks (FIG. 1A). […] This local inflammation was accompanied with the induction of neuroinflammation evidenced by the activation of microglia (FIG. 1D) and increased IL1β levels in hippocampus, cortex and cerebellum (FIG. 1E-G).\nSix in situ gel formulations (ISGs) were produced by varying polymer concentration, changing the hydrophobicity of the solvent system, and use of different plasticizers (such as PEG200). All these ISGs were analyzed by FT-IR/ATR and HPLC assay for drug-polymer compatibility. In vitro drug release experiments were performed to assess the profile of sustained release with controlled initial burst release. One gel formulation was chosen to treat periodontitis animals in-vivo at 1 μg/10 g body weight three times/week (FIG. 11).\nTo determine if succinate receptor 1 inhibitors could reduce inflammation, succinate receptor 1 inhibitors were administered to mice. In this study (FIG. 11), mice with periodontal disease were used because of the resulting neuroinflammation from the periodontal disease. Topical application of POC7a gel formulation was administered at 1 μg/10 g body weight three times/week."}, "[3]": {"settings": "mice; succinate IP daily (4 mM/kg) for 4 weeks vs PBS", "procedure": "FIG. 3. […] Mice received daily intraperitoneal (IP) injection with PBS or Succinate (4 mM/kg) for 4 weeks before sample collection. […] B. Alpha Diversity measured by the Observed number of ASVs, and Phylogenetic diversity index for oral swab samples. C. […] D. Network plot generated in Cytoscape 3.8.2. The small gray dots represent ASVs, the white circles represent WT samples, the yellow triangles represent WT_Suc samples. Edges represent the interaction of sample and ASV are colored based on sample type."}, "Fusobacterium nucleatum": {"test_system": "Fusobacterium nucleatum", "procedure": "FIG. 5. Fusobacterium nucleatum growth and virulence gene expression. A. F. nucleatum growth in media supplemented with indicated succinate concentrations shown as optical density measures over time (n=3, SEM). Different letters indicate statistically different from one another (ANOVA, p<0.05 by post-hoc Tukey's). B Relative expressions of virulence genes of F. nuleactum in 100 uM of succinate as determine by RT-PCR. (mean±SEM. ** p<0.01, * p<0.05)."}, "[4]": {"settings": "7a oral gavage 80 μmol/kg, 3 doses, mRNA at 24 hours"}, "[5]": {"settings": "mice with periodontitis, topical gel"}}, "data": [{"smiles": "CNC(=O)Cc1ccc(-c2ccc3cccnc3n2)cc1", "note": "[7a]", "values": [{"measurement": "IL1β expression in the cerebellum", "setting": "SUCNR1 [1]; [4]", "result": "less induction"}, {"measurement": "IL1β expression in the hippocampus", "setting": "SUCNR1 [1]; [4]", "result": "less induction"}, {"measurement": "TNFα expression in the cerebellum", "setting": "SUCNR1 [1]; [4]", "result": "less induction"}, {"measurement": "TNFα expression in the cortex", "setting": "SUCNR1 [1]; [4]", "result": "reduced"}, {"measurement": "TNFα expression in the hippocampus", "setting": "SUCNR1 [1]; [4]", "result": "less induction"}, {"measurement": "neuroinflammation", "setting": "SUCNR1 [1]; oral gavage", "result": "reduced neuroinflammation"}, {"measurement": "IL1β levels in cerebellum tissues", "setting": "SUCNR1 [2]; [5]", "result": "significant reduction"}, {"measurement": "IL1β levels in hippocampal tissues", "setting": "SUCNR1 [2]; [5]", "result": "significant reduction"}, {"measurement": "systemic IL1β levels in the serum", "setting": "SUCNR1 [2]; [5]", "result": "reduced"}, {"measurement": "local IL1β levels in the gingiva", "setting": "SUCNR1 [2]; mice with periodontitis, topical gel, mRNA around the ligature site", "result": "reduced"}, {"measurement": "periodontitis (μCT, distance between CEJ to alveolar bone crest)", "setting": "SUCNR1 [2]; mice, ligature + F. nucleatum, oral topical gel formulation every other day", "result": "inhibited periodontitis"}]}, {"smiles": "O=C(O)CCC(=O)O", "note": "[succinate]", "values": [{"measurement": "dysbiosis in the oral microbiota (alpha and beta diversity)", "setting": "[3]", "result": "increased"}, {"measurement": "serum IL-1β levels", "setting": "[3]", "result": "increased"}, {"measurement": "expression of virulence factors (Hemin receptor, Hemolysin, Hemolysin-related protein, Lys R Family transcriptional regulator)", "setting": "Fusobacterium nucleatum; 100 uM of succinate, RT-PCR", "result": "elevated"}, {"measurement": "F. nucleatum growth (optical density)", "setting": "Fusobacterium nucleatum; media supplemented with succinate", "result": "elevated"}]}]}
